These results are taken from patent US20100061982A1, “3-SUBSTITUTED-1H-INDOLE, 3-SUBSTITUTED-1H-PYRROLO[2,3-B]PYRIDINE AND 3-SUBSTITUTED-1H-PYRROLO[3,2-B]PYRIDINE COMPOUNDS, THEIR USE AS MTOR KINASE AND PI3 KINASE INHIBITORS, AND THEIR SYNTHESES” (priority 2008, published 2010).

Series [1] can be described thus: Microsome Stability (15 min), rat. Particulars: microsomes, Phase I (NADPH), read-out: Microsome Stability (15 min) T ½ Phase I rat. Format: in vitro ADME.
The nature of another series: Solubility pH 7.4. Particulars: pH 7.4, aqueous buffer.
A short description of series [2]: PAMPA permeability pH 7.4.
Series [3] can be described thus: Microsome Stability (15 min), nude mouse. Format: in vitro ADME. Particulars: microsomes, Phase I (NADPH), read-out: Microsome Stability (15 min) T ½ Phase I nude mouse.
The nature of series [4]: Microsome Stability (15 min), human. Particulars: microsomes. It is filed as in vitro ADME.
The nature of series [5]: CACO2 permeability a-b/b-a. Format: in vitro ADME. Particulars: human, Caco-2; for Papp A→B: a − b (first value of cell), read-out: CACO2 Pe a − b; for Papp B→A: b − a (second value of cell), read-out: CACO2 Pe b − a. In general terms: Passage across Caco-2 layers is used to estimate intestinal permeability.
The next series has as its target PI3K alpha (Homo sapiens, UniProt P42336). Briefly: PI3K-alpha Fluorescence Polarization Assay. It is filed as biochemical. In general terms: Polarisation of emitted light reports the rotation of a fluorescent probe.
Series [6] in a line: Buffer Stability (37° C.).
Series [7] in a line: Plasma Stability (37° C.), rat.
Series [8] is described as follows: In vivo blood/plasma and tumor levels of prodrug and metabolites after 50 mg, kg po. Particulars: 50 mg.
Setting [9] is: Phase I (NADPH), read-out: Microsome Stability (15 min) T ½ Phase I human.

In brackets after ≈: the same amount, converted by molar mass. Read-outs that look alike come from different tables or passages of the source.

Chain of PI3K alpha (P42336 whole entry, species assumed): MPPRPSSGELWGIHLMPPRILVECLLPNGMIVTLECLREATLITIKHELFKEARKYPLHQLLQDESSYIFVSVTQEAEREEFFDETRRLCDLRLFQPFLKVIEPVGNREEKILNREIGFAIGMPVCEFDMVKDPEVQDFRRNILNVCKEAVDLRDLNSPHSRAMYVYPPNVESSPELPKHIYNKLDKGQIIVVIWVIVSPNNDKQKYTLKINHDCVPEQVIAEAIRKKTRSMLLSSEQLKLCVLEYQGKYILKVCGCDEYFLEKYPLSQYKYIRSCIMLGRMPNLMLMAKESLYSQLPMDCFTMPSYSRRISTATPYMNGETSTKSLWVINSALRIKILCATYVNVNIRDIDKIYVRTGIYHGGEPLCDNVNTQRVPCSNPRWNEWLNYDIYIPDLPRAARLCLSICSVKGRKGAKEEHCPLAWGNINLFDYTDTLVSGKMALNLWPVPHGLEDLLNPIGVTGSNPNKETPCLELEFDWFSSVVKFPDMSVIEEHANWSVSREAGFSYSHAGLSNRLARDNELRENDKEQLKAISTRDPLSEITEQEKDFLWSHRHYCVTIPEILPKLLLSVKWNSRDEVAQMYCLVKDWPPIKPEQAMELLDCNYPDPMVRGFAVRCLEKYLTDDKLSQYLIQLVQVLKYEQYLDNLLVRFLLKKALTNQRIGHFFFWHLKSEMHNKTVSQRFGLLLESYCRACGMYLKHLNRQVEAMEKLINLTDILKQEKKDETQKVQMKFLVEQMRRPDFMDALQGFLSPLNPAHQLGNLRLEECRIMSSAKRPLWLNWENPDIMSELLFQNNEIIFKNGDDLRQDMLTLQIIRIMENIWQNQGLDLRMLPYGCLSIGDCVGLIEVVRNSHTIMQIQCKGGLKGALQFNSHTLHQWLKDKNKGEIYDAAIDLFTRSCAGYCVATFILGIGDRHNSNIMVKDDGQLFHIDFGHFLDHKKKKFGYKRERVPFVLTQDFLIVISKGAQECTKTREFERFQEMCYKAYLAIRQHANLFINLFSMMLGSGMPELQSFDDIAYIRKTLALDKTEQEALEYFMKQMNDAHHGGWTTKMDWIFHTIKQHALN
Chain of PI3K alpha (P27986 whole entry partner, species assumed): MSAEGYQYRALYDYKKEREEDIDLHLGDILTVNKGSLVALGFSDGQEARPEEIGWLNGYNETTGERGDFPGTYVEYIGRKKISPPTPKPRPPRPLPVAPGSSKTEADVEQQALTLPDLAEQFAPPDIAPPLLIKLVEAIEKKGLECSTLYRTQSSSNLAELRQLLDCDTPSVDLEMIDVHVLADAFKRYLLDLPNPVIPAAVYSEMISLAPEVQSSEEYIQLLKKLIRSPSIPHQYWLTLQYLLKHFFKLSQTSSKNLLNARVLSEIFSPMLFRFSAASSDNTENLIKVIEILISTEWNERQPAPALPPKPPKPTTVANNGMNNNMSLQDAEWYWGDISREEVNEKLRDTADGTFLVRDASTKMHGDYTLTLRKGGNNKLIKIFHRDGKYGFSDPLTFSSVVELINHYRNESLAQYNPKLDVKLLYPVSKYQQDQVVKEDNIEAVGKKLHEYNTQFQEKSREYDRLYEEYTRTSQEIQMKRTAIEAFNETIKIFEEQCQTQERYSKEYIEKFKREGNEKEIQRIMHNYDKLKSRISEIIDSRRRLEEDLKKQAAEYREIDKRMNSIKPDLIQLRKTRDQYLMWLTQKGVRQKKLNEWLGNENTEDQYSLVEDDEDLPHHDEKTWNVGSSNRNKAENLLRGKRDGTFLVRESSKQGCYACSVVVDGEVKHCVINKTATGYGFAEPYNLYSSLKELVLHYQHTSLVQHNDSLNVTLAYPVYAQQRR

By solubility is commonly meant the dissolved amount per volume that the medium holds. Higher therefore signals a readily soluble substance. In the case of `COc1ccc2c(c1)c(/C=C1\Oc3cc(O)ccc3C1=O)cn2CCCN(C)C` [(2Z)-2-({1-[3-(dimethylamino)propyl]-5-methoxy-1H-indol-3-yl}methylene)-6-hydroxy-1-benzofuran-3(2H)-one], the half-life in [1] was determined as 12 min. Also, the solubility in “Solubility pH 7.4” amounted to 53 µg/mL (≈ 135 µM). In addition, the “PAMPA Pe” value in series [2] is 0 10e−6 cm/s.

As for `Cn1cc(/C=C2\Oc3cccc(O)c3C2=O)c2c(N3CC4CCC(C3)O4)ccnc21` [(2Z)-4-hydroxy-2-{[1-methyl-4-(8-oxa-3-azabicyclo[3.2.1]oct-3-yl)-1H-pyrrolo[2,3-b]pyridin-3-yl]methylene}-1-benzofuran-3(2H)-one], the half-life in [1] stood at 2 min; in [3] (nude, mouse), 13 min; in series [4] (setting [9]), 28 min; in series [4] (value after the slash in Table VIc, read-out: Microsome Stability (15 min) T ½ human, second value of cell) it was 3 min. Besides, the Papp A→B in series [5] amounted to 5.5 ×10⁻⁶ cm/s. Besides, in [5], the Papp B→A is 8.1 ×10⁻⁶ cm/s. The “PAMPA Pe” value in series [2] is on record as 0.79 10e−6 cm/s.

A word on the IC50: it is the midpoint of a concentration-inhibition curve. Consider `COC(=O)Oc1cc(OC(=O)OC)c2c(c1)O/C(=C\c1cn(CCCN(C)C)c3ccc(OC)cc13)C2=O` [Example 13, (2Z)-2-({1-[3-(dimethylamino)propyl]-5-methoxy-1H-indol-3-yl}methylene)-3-oxo-2,3-dihydro-1-benzofuran-4,6-diyl dimethyl biscarbonate], for which, in “Solubility pH 7.4”, the concentration in solution (solubility) was 43 µg/mL (≈ 82 µM). Further, the “PAMPA Pe” value in [2] is 0.19 10e−6 cm/s. Also, the IC50 at PI3K alpha (read-out: PI3K alpha Mean IC50) was determined as 313 nM.

For `COc1ccc2c(c1)c(/C=C1\Oc3cc(OC(=O)C(C)(C)C)cc(OC(=O)C(C)(C)C)c3C1=O)cn2CCCN(C)C` [Example 14, (2Z)-2-({1-[3-(dimethylamino)propyl]-5-methoxy-1H-indol-3-yl}methylene)-3-oxo-2,3-dihydro-1-benzofuran-4,6-diyl bis(2,2-dimethylpropanoate)], the half-life in series [1] amounted to 3 min. In series [3] (nude, mouse), the half-life is 2 min. Further, in series [6], the “Buffer Stability (37° C.) % Remaining (at 16-23 hours) SGF” value came to 94%, the “Buffer Stability (37° C.) % Remaining (at 16-23 hours) SIF” value came to 0%, the “Buffer Stability (37° C.) % Remaining (at 16-23 hours) pH 1” value worked out at 89% and the “Buffer Stability (37° C.) % Remaining (at 16-23 hours) pH 4.5” value amounted to 98%. Further, in series [6], the “Buffer Stability (37° C.) % Remaining (at 16-23 hours) pH 6.6” value is 79%, the “Buffer Stability (37° C.) % Remaining (at 16-23 hours) pH 7.4” value amounted to 20% and the “Buffer Stability (37° C.) % Remaining (at 16-23 hours) pH 9” value is given as 0%. Further, the half-life in series [4] (setting [9]) was determined as 21 min. For the same compound, in “Solubility pH 7.4”, the solubility was 1 µg/mL (≈ 1.73 µM). The “PAMPA Pe” value in [2] is 0 10e−6 cm/s.

In turn, `COc1ccc2c(c1)c(/C=C1\Oc3cc(OC(C)=O)cc(OC(C)=O)c3C1=O)cn2CCCN(C)C` [Example 15, (2Z)-2-({1-[3-(dimethylamino)propyl]-5-methoxy-1H-indol-3-yl}methylene)-3-oxo-2,3-dihydro-1-benzofuran-4,6-diyl diacetate] showed a solubility in “Solubility pH 7.4” of 49 µg/mL. Further, in [2], the “PAMPA Pe” value is listed as 0.24 10e−6 cm/s. Further, the IC50 on PI3K alpha (read-out: PI3K alpha Mean IC50) stood at 82 nM.

Turning to `COc1ccc2[nH]c(-c3ccccc3)c(/C=C3\Oc4cc(OC(=O)c5ccccc5)ccc4C3=O)c2c1` [Example 17, (2Z)-2-[(5-methoxy-2-phenyl-1H-indol-3-yl)methylene]-3-oxo-2,3-dihydro-1-benzofuran-6-yl benzoate], the half-life in [1] stood at 5 min. Also, the half-life in [3] (nude, mouse) is more than 30 min. In series [6], the “Buffer Stability (37° C.) % Remaining (at 16-23 hours) SGF” value came to 96%, the “Buffer Stability (37° C.) % Remaining (at 16-23 hours) SIF” value was found to be 0%, the “Buffer Stability (37° C.) % Remaining (at 16-23 hours) pH 1” value was determined as 95% and the “Buffer Stability (37° C.) % Remaining (at 16-23 hours) pH 4.5” value was found to be 93%. For the same compound, in series [6], the “Buffer Stability (37° C.) % Remaining (at 16-23 hours) pH 6.6” value is reported as 95%, the “Buffer Stability (37° C.) % Remaining (at 16-23 hours) pH 7.4” value came to 32% and the “Buffer Stability (37° C.) % Remaining (at 16-23 hours) pH 9” value is given as 0%. Moreover, the half-life in [4] (setting [9]) was determined as 4 min. In series [7], the “Plasma Stability (37° C.) % Remaining (3-3.5 hours) rat” value (from here on “Plasma Stability (37° C.) % Remaining”) was 2%. The solubility in “Solubility pH 7.4” was found to be 4 µg/mL (≈ 8.2 µM). For the same compound, the “PAMPA Pe” value in series [2] is 0 10e−6 cm/s. Further, the IC50 on PI3K alpha (read-out: PI3K alpha Mean IC50) amounted to 157 nM.

Regarding `COc1ccc2[nH]c(-c3ccccc3)c(/C=C3\Oc4cc(OC(=O)N(c5ccccc5)c5ccccc5)ccc4C3=O)c2c1` [Example 20, (2Z)-2-[(5-methoxy-2-phenyl-1H-indol-3-yl)methylene]-3-oxo-2,3-dihydro-1-benzofuran-6-yl diphenylcarbamate], in series [1], the half-life is more than 30 min. Moreover, in series [3], the half-life is more than 30 min. For the same compound, in series [6], the “Buffer Stability (37° C.) % Remaining (at 16-23 hours) SGF” value worked out at 100%, the “Buffer Stability (37° C.) % Remaining (at 16-23 hours) SIF” value came out at 100%, the “Buffer Stability (37° C.) % Remaining (at 16-23 hours) pH 1” value amounted to 100% and the “Buffer Stability (37° C.) % Remaining (at 16-23 hours) pH 4.5” value is reported as 100%. Further, in series [6], the “Buffer Stability (37° C.) % Remaining (at 16-23 hours) pH 6.6” value was 100%, the “Buffer Stability (37° C.) % Remaining (at 16-23 hours) pH 7.4” value was determined as 100% and the “Buffer Stability (37° C.) % Remaining (at 16-23 hours) pH 9” value is on record as 95%. Also, the half-life in [4] (setting [9]) was more than 30 min. Besides, the “Plasma Stability (37° C.) % Remaining” value in [7] is given as 91%. For the same compound, in series [2], the “PAMPA Pe” value is given as “Undetected”. In addition, at PI3K alpha (read-out: PI3K alpha Mean IC50), the IC50 was more than 10000 nM.

On to `COc1ccc2[nH]c(-c3ccccc3)c(/C=C3\Oc4cc(OC(=O)Oc5ccccc5)cc(OC(=O)Oc5ccccc5)c4C3=O)c2c1` [Example 23, (2Z)-2-[(5-methoxy-2-phenyl-1H-indol-3-yl)methylene]-3-oxo-2,3-dihydro-1-benzofuran-4,6-diyl diphenyl biscarbonate], for which the half-life in series [1] amounted to 8 min. Also, in series [6], the “Buffer Stability (37° C.) % Remaining (at 16-23 hours) SGF” value was 0%, the “Buffer Stability (37° C.) % Remaining (at 16-23 hours) SIF” value is recorded as 0%, the “Buffer Stability (37° C.) % Remaining (at 16-23 hours) pH 1” value is 0% and the “Buffer Stability (37° C.) % Remaining (at 16-23 hours) pH 4.5” value is 0%. In addition, in [6], the “Buffer Stability (37° C.) % Remaining (at 16-23 hours) pH 6.6” value stood at 0%, the “Buffer Stability (37° C.) % Remaining (at 16-23 hours) pH 7.4” value is 0% and the “Buffer Stability (37° C.) % Remaining (at 16-23 hours) pH 9” value came out at 0%. The half-life in [4] (setting [9]) was found to be 6 min. Further, in series [7], the “Plasma Stability (37° C.) % Remaining” value amounted to 0%. In the series “Solubility pH 7.4”, this compound showed a solubility of 1 µg/mL (≈ 1.56 µM). Also, in series [2], the “PAMPA Pe” value is reported as 0 10e−6 cm/s. The IC50 on PI3K alpha (read-out: PI3K alpha Mean IC50) turned out to be 10 nM.

For `COc1ccc2c(c1)c(/C=C1\Oc3cc(OC(=O)N(c4ccccc4)c4ccccc4)cc(OC(=O)N(c4ccccc4)c4ccccc4)c3C1=O)c(C)n2CCN1CCN(C)CC1` [Example 29, (2Z)-2-({5-methoxy-2-methyl-1-[2-(4-methylpiperazin-1-yl)ethyl]-1H-indol-3-yl}methylene)-3-oxo-2,3-dihydro-1-benzofuran-4,6-diyl bis(diphenylcarbamate)], the concentration in solution in the series “Solubility pH 7.4” (solubility) was 5 µg/mL (≈ 5.85 µM). For the same compound, in series [2], the “PAMPA Pe” value is listed as 0 10e−6 cm/s. The compound further showed an IC50 against PI3K alpha of 1000 nM.

Take `COc1ccc2[nH]c(-c3ccccc3)c(/C=C3\Oc4cc(OC(=O)N(C)C)cc(OC(=O)N(C)C)c4C3=O)c2c1` [Example 30, (2Z)-2-[(5-methoxy-2-phenyl-1H-indol-3-yl)methylene]-3-oxo-2,3-dihydro-1-benzofuran-4,6-diyl bis(dimethylcarbamate)]: the half-life was 19 min in [1], more than 30 min in [3] and less than 1 min in series [4] (setting [9]). The plasma prodrug concentration in series [8] (0.5 h) is listed as 29 ng, ml; in [8] (2 h), 65 ng, ml; in series [8] (6 h (third value)), 20 ng, ml. Also, the Papp A→B in series [5] came to 0.19 ×10⁻⁶ cm/s. Besides, in [5], the Papp B→A stood at 0.04 ×10⁻⁶ cm/s. For the same compound, the “PAMPA Pe” value in series [2] is reported as 0 10e−6 cm/s. For the same compound, the IC50 against PI3K alpha came to 2220 nM.

In the case of `CCOP(=O)(OCC)Oc1cc2c(c(OP(=O)(OCC)OCC)c1)C(=O)/C(=C/c1cn(CCCN(C)C)c3ccc(OC)cc13)O2` [Example 33, (2Z)-2-({1-[3-(dimethylamino)propyl]-5-methoxy-1H-indol-3-yl}methylene)-3-oxo-2,3-dihydro-1-benzofuran-4,6-diyl tetraethyl bis(phosphate)], the half-life came to 12 min in [1], 15 min in series [3] and 4 min in series [4] (setting [9]). Further, in “Solubility pH 7.4”, the solubility is 59 µg/mL. For the same compound, in series [2], the “PAMPA Pe” value is recorded as 0.25 10e−6 cm/s. In addition, the IC50 on PI3K alpha was more than 10000 nM.

In “Solubility pH 7.4”, `CCOC(=O)CNC(=O)Oc1cc(OC(=O)NCC(=O)OCC)c2c(c1)O/C(=C\c1cn(CCCN(C)C)c3ccc(OC)cc13)C2=O` [Example 35, diethyl 2,2′-[[(2Z)-2-({1-[3-(dimethylamino)propyl]-5-methoxy-1H-indol-3-yl}methylene)-3-oxo-2,3-dihydro-1-benzofuran-4,6-diyl]bis(oxycarbonylimino)]diacetate] displayed a solubility of 51 µg/mL (≈ 76.5 µM). In addition, the “PAMPA Pe” value in [2] is reported as 0 10e−6 cm/s. The compound further yielded an IC50 at PI3K alpha of 28 nM.
